{"source": "patent EP1096933B1", "about": "“USE OF AN INHIBITOR OF CYTOCHROME P450 OPTIONALLY COMBINED WITH AN ANTIFUNGAL AGENT FOR TREATING MYCOSES” (priority 1998, dated 2000)", "tested_on": "Trichophyton rubrum", "assay": "growth of strains streaked on Sabouraud agar containing the products", "assay_type": "cell-based", "settings": "Tric.Rubrum; for activity at 20 µg/mL: read-out: % DE CROISSANCE; for inhibition at 2 µg/mL / inhibition at 10 µg/mL / inhibition at 20 µg/mL / inhibition at 50 µg/mL: read-out: inhibition de la croissance", "experimental": "Ces molécules ont été incorporées dans un milieu gélosé dit de Sabouraud (peptone 10g/l, glucose 10 g/l, gomme agar 15 g/l).\nDes souches de diverses espèces de champignons ont été ensemencées par stries par la méthode de Stires.\nLe pourcentage de croissance a été mesuré au cours du temps, pour des périodes allant jusqu'à 21 jours, pour certaines des souches testées.\nLes quantités de pipéronyl butoxyde, et de cyclopyroxolamine utilisées sont identiques et sont de 10 ou 20 µg/ml dans le cas de l'association entre ces deux composés.\nDans le cas de l'association entre le pipéronyl butoxyde et l'éconazole, elles sont respectivement de 10 ou 20 µg/ml de pipéronyl butoxyde et de 1 µg/ml d'éconazole.\nDes souches appartenant aux espèces suivantes ont été testées: Microsporum canis, Trichophyton rubrum, Trichophyton interdigitale, Trichophyton mentagrophytes, Microsporum persicolor, Epidermophyton floccosum, Trichophyton violaceum et Trichophyton soudanense.\nL'activité du pipéronyl butoxyde seul a été testée à diverses concentrations, comme indiqué dans le tableau 1 sur le milieu de Sabouraud, dépourvu de tout autre fongicide.", "note": "Where two headings read alike, the source gives them in different places.", "data": [{"smiles": "CCCCOCCOCCOCc1cc2c(cc1CCC)OCO2", "note": "[Piperonyl., pipéronyl butoxyde]", "values": [{"measurement": "activity at 20 µg/mL", "setting": "0 h, J0, 20µg/ml each product", "value": 0, "unit": "%"}, {"measurement": "activity at 20 µg/mL", "setting": "96 h, J4, 20µg/ml each product", "value": 0, "unit": "%"}, {"measurement": "activity at 20 µg/mL", "setting": "144 h, J6, 20µg/ml each product", "value": 20, "unit": "%"}, {"measurement": "activity at 20 µg/mL", "setting": "240 h, J10, 20µg/ml each product", "value": 35, "unit": "%"}, {"measurement": "activity at 20 µg/mL", "setting": "336 h, J14, 20µg/ml each product", "value": 50, "unit": "%"}, {"measurement": "inhibition at 2 µg/mL", "setting": "J+4, 2 µg/ml", "value": 15, "unit": "%"}, {"measurement": "inhibition at 10 µg/mL", "setting": "J+4, 10 µg/ml", "value": 10, "unit": "%"}, {"measurement": "inhibition at 20 µg/mL", "setting": "J+4, 20 µg/ml", "value": 0, "unit": "%"}, {"measurement": "inhibition at 50 µg/mL", "setting": "J+4, 50 µg/ml", "value": 0, "unit": "%"}, {"measurement": "inhibition at 2 µg/mL", "setting": "J+10, 2 µg/ml", "value": 90, "unit": "%"}, {"measurement": "inhibition at 10 µg/mL", "setting": "J+10, 10 µg/ml", "value": 60, "unit": "%"}, {"measurement": "inhibition at 20 µg/mL", "setting": "J+10, 20 µg/ml", "value": 35, "unit": "%"}, {"measurement": "inhibition at 50 µg/mL", "setting": "J+10, 50 µg/ml", "value": 0, "unit": "%"}, {"measurement": "inhibition at 2 µg/mL", "setting": "J+14, 2 µg/ml", "value": 100, "unit": "%"}, {"measurement": "inhibition at 10 µg/mL", "setting": "J+14, 10 µg/ml", "value": 75, "unit": "%"}, {"measurement": "inhibition at 20 µg/mL", "setting": "J+14, 20 µg/ml", "value": 50, "unit": "%"}, {"measurement": "inhibition at 50 µg/mL", "setting": "J+14, 50 µg/ml", "value": 0, "unit": "%"}]}]}
